Test results from patent US20230233533A1, “COMPOSITIONS, METHODS OF TREATING AND PREVENTING FUNGAL INFECTIONS, AND METHODS OF INHIBITING PRP8 INTEIN EXPRESSION” (Health Research, Inc., priority 2020, published 2023).
Values after ≈ are worked out from the molar mass of the structure shown. Numbered stars: 1 amine (or outer) side, 2 acyl side, 3 side chain; on linkers, the order of the positions; unused ones are H or OH. Bridge positions count the residues as written; N and C are the ends. Square brackets hold non-standard residues; d marks the D form. Peptide text beside a SMILES is read from it. * marks the point of attachment. hTyr(3S-OH,4S-OH,3'-OSO3H) = N[C@H](C(=O)O)[C@H](O)[C@@H](O)c1ccc(O)c(OS(=O)(=O)O)c1; pTerphenylCO(4''-OnC5H11) = CCCCCOc1ccc(-c2ccc(-c3ccc(C(=O)*)cc3)cc2)cc1; Orn(4R-OH,5R-OH) = O=C([C@H](C[C@@H](O)[C@@H](O)N[*:3])N[*:1])[*:2]; hTyr(3S-OH,4S-OH) = N[C@H](C(=O)O)[C@H](O)[C@@H](O)c1ccc(O)cc1; Pro(3S-OH,4S-Me) = C[C@H]1CN[C@H](C(=O)O)[C@H]1O; X1 = CCCCCOc1ccc(-c2cc(-c3ccc(C(=O)*)cc3)no2)cc1; Gln(3R-OH) = NC(=O)C[C@@H](O)[C@H](N)C(=O)O; Hyp = O=C(O)[C@@H]1C[C@@H](O)CN1

Assays:
[1] = tested on: C. neoformans; assay: Sensititre YeastOne Y09 AST drug combination assay; assay type: cell-based, Cryptococcus neoformans; settings: 6G-318S at 0.16 ug/ml, C. neoformans H99
Method: Sensititre YeastOne Y09 AST assay—Fungal susceptibility to a combination of compounds was carried out using the Sensititre YeastOne Y09 AST assay kit (Thermofisher), according to the manufacturer's manual. Briefly, fungal C. neoformans cells in exponential growth phase were diluted to a final OD530 of 0.1. Then 20 μl diluted cells were further diluted into 10 ml YPD as a stock. […] The stock C. neoformans (100 μl, ˜200 cells) were dispensed into the compound-ready 96-well plate. The fungal cells (treated or with DMF) were incubated at 30° C. for 48 h. The cell cultures were visualized by naked eye. The MIC break points were determined according to manufacturer's instructions.

[2] = target: T1, Prp8 intein (Cryptococcus gattii, UniProt E6R027); assay: Split GFP-Prp8i intein splicing assay; assay type: biochemical; settings: split GFP-Prp8 intein splicing
Method: Cloning, expression and purfication—The split GFP-Prp8i was constructed using a mega-PCR mutagenesis approach. […] After digestion with Dpn I restriction enzyme, the PCR product was transformed into DH5α Escherichia coli. Clones were verified by plasmid DNA sequencing. The expression, refolding and purification of the GFP-Prp8i fusion protein were carried out as described previously.
[…] Then 100 μl 2×TCEP was added to a final concentration of 20 μM. The reactions were incubated at 25° C. overnight. […] Two readings were taken, one prior to addition of TCEP (I0) and one after incubation overnight with TCEP (If). Fluorescence/luminescence differences (ΔFluorescence or ΔLuminescence) were defined as If−I0 for each well. […] DMF control served as 100% splicing activity.
Split GFP-Prp8 and CJGFP-Prp8 intein splicing assays—Using black and clear bottom 96-well plates, the DPNB-treated, -refolded and -concentrated GFP-Prp8 or CfGFP-Prp8 fusion protein (0.5 μM) was incubated with compounds or Dimethylsulfoxide (DMSO) solvent control for 30 min at 25° C. in a 100 μl intein splicing buffer (20 mM Bis-tris propane, 0.5 M NaCl, 0.5 M arginine, 1 mM EDTA, and 0.05% CHAPS). Then 100 μl 2×TCEP was added to a final concentration of 20 μM. The reactions were incubated at 25° C. overnight. […] Two readings were taken, one prior to addition of TCEP (I0) and one after incubation overnight with TCEP (If). Fluorescence/luminescence differences (ΔFluorescence or ΔLuminescence) were defined as If−I0 for each well. […] DMSO control served as 100% splicing activity.

[3] = target: T1, Prp8 intein; assay: Split Renilla luciferase RLuc-Prp8 intein splicing assay; assay type: biochemical; settings: split Renilla luciferase RLuc-Prp8 intein splicing
Method: Split luciferase Prp8 intein splicing assay—The split RLuc-Prp8 fusion protein was carried out and monitored using a Veritas luminometer, as described previously.
Split luciferase RLuc-Prp8 and NnLuc-Prp8 intein splicing assays—The split RLuc-Prp8 intein splicing assay was carried out and monitored using a Veritas luminometer, as described previously. […] Microbes. Infect. […] For NnLuc-Prp8 intein splicing assay, the NnLuc-prp8 is diluted in assay buffer (50 mM Tris, 0.1% BSA, 1 mM EDTA, pH 7.4) and 50 ul is added to each well in 96 well black plates. Test molecules or the solvent was added and incubated for 30 to 60 min. A splicing inducer TCEP (50 ul, 100 μM) is added and incubated for 24 h. Luciferase substrate (Furimazine, 25 ul 1:10,000 diluted) is added and luminescence is read using a luminescence reader. IC50 is calculated using Graphpad prism.

[4] = tested on: C. neoformans H99 strain; assay: Fungal susceptibility test, broth microdilution MIC; assay type: cell-based, Cryptococcus neoformans; settings: Cryptococcus neoformans, H99STRAIN; C. neoformans H99, microbroth dilution; read-out: MIC H99
Method: Fungal susceptibility test—The fungal susceptibility test was carried out with a compound concentration series as described. […] The broth microdilution method was used to determine the compound MIC values against C. neoformans.
Fungal susceptibility test—The fungal susceptibility test was carried out with a compound concentration series as described. […] Microbes. Infect. […] The broth microdilution method was used to determine the compound MIC values against C. neoformans.

[5] = in vitro; assay type: cell-based, human; settings: human, CC50 A549
Method: Cytotoxicity—Cytotoxicity assays were carried out using human lung carcinoma cell line A549, as described (Chen et al., “Selective Inhibition of the West Nile Virus Methyltransferase by Nucleoside Analogs,” Antiviral Research 97(3):232-239 (2013), which is hereby incorporated by reference in its entirety). Briefly, the A549 cells (5×10^3) were incubated with/without compounds in a 96-well plate at 37° C. for 48 h. Cell viability was determined using the MTT assay (ATCC) as was described previously (Chen et al., “Selective Inhibition of the West Nile Virus Methyltransferase by Nucleoside Analogs,” Antiviral Research 97(3):232-239 (2013) and Brecher et al., “Identification and Characterization of Novel Broad-Spectrum Inhibitors of the Flavivirus Methyltransferase,” ACS Infectious Diseases 1(8):340-349 (2015), both of which are hereby incorporated by reference in their entirety). N=3.
Cytotoxicity—Cytotoxicity assays were carried out using human lung carcinoma cell line A549, as described. Chen et al., “Selective Inhibition of the West Nile Virus Methyltransferase by Nucleoside Analogs,” Antiviral Res. 97:232-9 (2013), which is hereby incorporated by reference in its entirety. Briefly, the A549 cells (5×10^3) were incubated with/without compounds in a 96-well plate at 37° C. for 48 h. Cell viability was determined using the MTT assay (ATCC) as was described previously (Chen et al., “Selective Inhibition of the West Nile Virus Methyltransferase by Nucleoside Analogs,” Antiviral Research 97(3):232-239 (2013) and Brecher et al., “Identification and Characterization of Novel Broad-Spectrum Inhibitors of the Flavivirus Methyltransferase,” ACS Infectious Diseases 1(8):340-349 (2015), both of which are hereby incorporated by reference in their entirety). N=3.

T1 sequence (E6R027 entry or part of it): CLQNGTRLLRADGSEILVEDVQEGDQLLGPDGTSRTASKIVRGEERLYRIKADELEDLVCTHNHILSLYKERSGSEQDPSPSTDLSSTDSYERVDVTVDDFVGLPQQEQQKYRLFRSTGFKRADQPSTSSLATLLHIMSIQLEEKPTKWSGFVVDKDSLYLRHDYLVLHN

| SMILES | reduction of MIC of known antifungal on addition of 6G-318S [1] | IC50 [2] [µM] | IC50 [3] [µM] | MIC [4] [µM] | CC50 at 48 h [5] [µM] |
| --- | --- | --- | --- | --- | --- |
| CCCCCOc1ccc(-c2ccc(-c3ccc(C(=O)N[C@H]4C[C@@H](O)[C@@H](O)NC(=O)[C@@H]5[C@@H](O)[C@@H](C)CN5C(=O)[C@H]([C@@H](C)O)NC(=O)[C@H]([C@H](O)[C@@H](O)c5ccc(O)cc5)NC(=O)[C@@H]5C[C@@H](O)CN5C(=O)[C@H]([C@@H](C)O)NC4=O)cc3)cc2)cc1 [AND, Anidulafungin] ({pTerphenylCO(4''-OnC5H11)}-[Orn(4R-OH,5R-OH)]T[Hyp][hTyr(3S-OH,4S-OH)]T[Pro(3S-OH,4S-Me)]; lactam 1-C) | did not change |  |  |  |  |
| CC[C@H](C)C[C@H](C)CCCCCCCCC(=O)N[C@H]1C[C@@H](O)[C@@H](NCCN)NC(=O)[C@@H]2[C@@H](O)CCN2C(=O)[C@H]([C@H](O)CCN)NC(=O)[C@H]([C@H](O)[C@@H](O)c2ccc(O)cc2)NC(=O)[C@@H]2C[C@@H](O)CN2C(=O)[C@H]([C@@H](C)O)NC1=O [CAS, Caspofungin] | did not change |  |  |  |  |
| OC(Cn1cncn1)(Cn1cncn1)c1ccc(F)cc1F [FZ, fluconazole] | did not change |  |  |  |  |
| O=C(Nc1ccc(F)cc1F)c1nnsc1Sc1ccc(Cl)cc1 [JMX0569, 5-((4-Chlorophenyl)thio)-N-(2,4-difluorophenyl)-1,2,3-thiadiazole-4-carboxamide] |  | > 50 | 36.2 | > 100 | 186 |
| O=C(Nc1ccc(Cl)cc1)c1nnsc1Sc1ccc(Cl)cc1 [JMX0570, N-(4-Chlorophenyl)-5-((4-chlorophenyl)thio)-1,2,3-thiadiazole-4-carboxamide] |  | 38.7 | 21.6 | > 100 | 83.7 |
| O=C(Nc1ccc(Cl)cc1)c1nnsc1S(=O)(=O)c1ccc(Cl)cc1 [JMX0571, N-(4-Chlorophenyl)-5-((4-chlorophenyl)sulfonyl)-1,2,3-thiadiazole-4-carboxamide] |  | 1.8 | 12.6 | 0.39 (≈ 0.162 µg/mL) | 33.8 |
| O=C(NCc1ccc(F)cc1)c1nnsc1Sc1ccc(Cl)cc1 [JMX0573, 5-((4-Chlorophenyl)thio)-N-(4-fluorobenzyl)-1,2,3-thiadiazole-4-carboxamide] |  | > 50 | 5.5 | > 100 | 282 |
| O=C(NCc1ccc(F)cc1)c1nnsc1S(=O)(=O)c1ccc(Cl)cc1 [JMX0574, 5-((4-Chlorophenyl)sulfonyl)-N-(4-fluorobenzyl)-1,2,3-thiadiazole-4-carboxamide] |  | 1.6 | 59.1 | 0.78 (≈ 0.321 µg/mL) | 21.5 |
| O=C(Nc1ccc(C(F)(F)F)cc1)c1nnsc1Sc1ccc(Cl)cc1 [JMX0575, 5-((4-Chlorophenyl)thio)-N-(4-(trifluoromethyl)phenyl)-1,2,3-thiadiazole-4-carboxamide] |  | > 50 | 21.5 | > 100 | 271 |
| O=C(Nc1ccc(C(F)(F)F)cc1)c1nnsc1S(=O)(=O)c1ccc(Cl)cc1 [JMX0576, 5-((4-Chlorophenyl)sulfonyl)-N-(4-(trifluoromethyl)phenyl)-1,2,3-thiadiazole-4-carboxamide] |  | 0.9 | 11.9 | 0.78 (≈ 0.349 µg/mL) | 40.3 |
| O=C(Nc1ccc(F)cc1)c1nnc(Sc2ccc(Cl)cc2)s1 [JMX0584, 5-((4-chlorophenyl)thio)-N-(4-fluorophenyl)-1,3,4-thiadiazole-2-carboxamide] |  | > 50 | 11 | > 100 | > 150 |
| O=C(Nc1ccc(F)cc1)c1nnc(S(=O)(=O)c2ccc(Cl)cc2)s1 [JMX0585-1, 5-((4-chlorophenyl)sulfonyl)-N-(4-fluorophenyl)-1,3,4-thiadiazole-2-carboxamide] |  | 5.7 | 19.4 | 3.12 (≈ 1.24 µg/mL) | 26 |
| O=C(Nc1ccc(F)cc1)c1nnc([S+]([O-])c2ccc(Cl)cc2)s1 (stereo not drawn) [JMX0585-2, 5-((4-chlorophenyl)sulfinyl)-N-(4-fluorophenyl)-1,3,4-thiadiazole-2-carboxamide] |  | 4.5 | 20.9 | 0.097 (≈ 0.037 µg/mL) | 28.5 |
| CCCCCOc1ccc(-c2cc(-c3ccc(C(=O)N[C@H]4C[C@@H](O)[C@@H](O)NC(=O)[C@@H]5[C@@H](O)[C@@H](C)CN5C(=O)[C@H]([C@H](O)CC(N)=O)NC(=O)[C@H]([C@H](O)[C@@H](O)c5ccc(O)c(OS(=O)(=O)O)c5)NC(=O)[C@@H]5C[C@@H](O)CN5C(=O)[C@H]([C@@H](C)O)NC4=O)cc3)no2)cc1 [MF, Micafungin] (X1-[Orn(4R-OH,5R-OH)]T[Hyp][hTyr(3S-OH,4S-OH,3'-OSO3H)][Gln(3R-OH)][Pro(3S-OH,4S-Me)]; lactam 1-C) | did not change |  |  |  |  |
| CC[C@@H]([C@H](C)O)n1ncn(-c2ccc(N3CCN(c4ccc(OC[C@@H]5CO[C@@](Cn6cncn6)(c6ccc(F)cc6F)C5)cc4)CC3)cc2)c1=O [PZ, Posaconazole] | did not change |  |  |  |  |
